Reference: patent US20160214958A1, “COMPOUNDS AND USE FOR TREATING CANCER” (GLIONOVA AB, priority 2013, published 2016)

Tests used:
[1] = tested on: glioma stem cell line U3013; assay: In vitro cancer cell and CSC viability assay (ATP quantification, CellTiterGlo); type: cell-based, human; settings: for EC50: Homo sapiens, read-out: In vitro efficacy (viability) EC50; for potency with respect to S10 (viability): individual isomers of racemic S10
Protocol: The ability of Examples S1-S23 to selectively induce cytotoxicity in glioma/glioblastoma cancer cells or glioma/glioblastoma cancer stem cells was determined by quantification of ATP production in glioma stem cell line U3013 in the presence of using CellTiterGlo reagent (Promega). Cells were exposed to compound in serial dilution in the range 1 nM to 50 µM for 24 hours and viability assessed with respect to negative control (dmso, no cell death) and positive control (staurosporine, full cell death). […] The EC50 of S10 remained largely similar at 2, 3 and 4 days of incubation. […] The individual isomers (S21-S23) of racemic S10 were evaluated in order to determine the enantiospecific pharmacology of the individual isomers.
Negative (100% DMSO) and positive (10 mM S10 in 100% DMSO) controls were placed in rows 1-4 and 5-8, respectively, of column 12. The wells were diluted with 190 μl of the corresponding growth media and 5 μl of each well of compound solution transferred to quadruplicate wells of a sterile 384-well black clear bottom plate (BD Falcon) containing GSC at 70% confluency in 45 μl growth media. The plate was incubated for 24 hours, after which the plate was removed from the incubator and each well imaged in bright-field using an Operetta Imaging system (PerkinElmer) at 37° C. and 5% CO2 to determine vacuole accumulation at each concentration. The plate was then allowed to cool to room temperature and each well treated with 25 μl freshly CellTiterGlo (Promega) reagent. The plate was shaken for 15 minutes and luminescence measured using a Victor3 (Perkin Elmer) microtiterplate reader. Total luminescence was normalized relative to control and curve fitting performed using GraphPad Prism (v6.02) software.

[2] = Pharmacokinetic evaluation of Vacquinol-1 stereoisomers, plasma and brain; type: in vivo, NMRI (SR/RS) or BALB/c (Vrac) mice
Protocol: The pharmacokinetics of Vacquinol-1 (racemic), Vacquinol-1RS and Vacquinol-1SR, were determined in NMRI (SR/RS) or BALB/c (Vrac) mice following single intravenous (i.v.) or per oral (p.o) administration of 2 or 20 mg/kg Vacquinol-1, respectively. Blood and brain samples were taken from animals at the following nominal time points: 15, 30, and 60 minutes, and 2, 4, 6, 8, 24, 48, 72 and 144 hours after dosing (n=3/time-point). Bioanalytical quantification of Vacquinol-1 was analysed in plasma and brain samples by a UPLC-MS/MS.
Pharmacokinetics were calculated by non-compartmental analysis (NCA) from composite (mean) profiles. Nominal sampling times and dose levels have been used for the NCA calculations.

SMILES	EC50 ([1]; U3013, 24 hours exposure) [µM]	further results
O[C@H](c1cc(-c2ccc(C(F)(F)F)nc2)nc2ccccc12)[C@@H]1CCCCN1 (racemic) [Compound S27, mixture of (R)-((S)-piperidin-2-yl)(2-(6-(trifluoromethyl)pyridin-3-yl)quinolin-4-yl)methanol and (S)-((R)-piperidin-2-yl)(2-(6-(trifluoromethyl)pyridin-3-yl)quinolin-4-yl)methanol]	38	–
COC(c1cc(-c2ccc(Cl)cc2)nc2ccccc12)C1CCCCN1 (centres unmarked) [Compound S14, 2-(4-chlorophenyl)-4-(methoxy(piperidin-2-yl)methyl)quinoline]	5.62	–
Cc1ccc2nc(Nc3ccc(Cl)cc3)cc(C(O)C3CCCCN3)c2c1 (centres unmarked) [Compound S3, (2-((4-chlorophenyl)amino)-6-methylquinolin-4-yl)(piperidin-2-yl)methanol]	0.73	–
OC(c1cc(-c2ccc(Cl)cc2Cl)nc2ccccc12)C1CCCCN1 (centres unmarked) [Compound S12, (2-(2,4-dichlorophenyl)quinolin-4-yl)(piperidin-2-yl)methanol]	3.22	–
OC(c1cc(-c2ccccc2)nc2ccc(Cl)cc12)C1CCCCN1 (centres unmarked) [Compound S13, (6-chloro-2-phenylquinolin-4-yl)(piperidin-2-yl)methanol]	3.62	–
Cc1ccc(-c2cc([C@@H](O)[C@@H]3CCCCN3)c3ccccc3n2)cc1C#N (racemic) [Compound S24, mixture of 5-(4-((R)-hydroxy((S)-piperidin-2-yl)methyl)quinolin-2-yl)-2-methylbenzonitrile and 5-(4-((S)-hydroxy((R)-piperidin-2-yl)methyl)quinolin-2-yl)-2-methylbenzonitrile]	32.1	–
OC(c1cc(-c2ccccc2)nc2c(Cl)cc(Cl)cc12)C1CCCCN1 (centres unmarked) [Compound S5, (6,8-dichloro-2-phenylquinolin-4-yl)(piperidin-2-yl)methanol]	1.1	–
C#Cc1ccc(-c2cc(C(O)C3CCCCN3)c3ccccc3n2)cc1 (centres unmarked) [Compound S8, (2-(4-ethynylphenyl)quinolin-4-yl)(piperidin-2-yl)methanol]	1.69	–
COc1ccc(-c2cc(C(O)C3CCCCN3)c3ccccc3n2)cc1 (centres unmarked) [Compound S15, (2-(4-methoxyphenyl)quinolin-4-yl)(piperidin-2-yl)methanol]	7.59	–
O[C@@H](c1cc(-c2ccc(Cl)cc2)nc2ccccc12)[C@H]1CCCCN1 [Compound S21, (S)-(2-(4-chlorophenyl)quinolin-4-yl)((R)-piperidin-2-yl)methanol]	2.67	potency with respect to S10 (viability) [1]: equal or increased potency; AUClast Plasma ([2]; 2 mg/kg i.v., mice): 14100 ng·h/mL; Cmax Brain ([2]; 2 mg/kg i.v., mice): 777 ng/mL; tlast Brain ([2]; 2 mg/kg i.v., mice): 72 h; tlast Plasma ([2]; 2 mg/kg i.v., mice): 72 h; AUClast Brain ([2]; 20 mg/kg p.o., mice): 157000 ng·h/mL; AUClast Plasma ([2]; 20 mg/kg p.o., mice): 183000 ng·h/mL; Cmax Brain ([2]; 20 mg/kg p.o., mice): 1490 ng/mL; tlast Brain ([2]; 20 mg/kg p.o., mice): 144 h; tlast Plasma ([2]; 20 mg/kg p.o., mice): 144 h; Kp ([2]; NMRI (single stereoisomers SR/RS), BALB/c (racemate), mouse, brain and plasma, 20 mg/kg, after oral dosing, read-out: Cmax exposures ratio (Cmax(brain)/Cmax(plasma))): 0.7; AUC(0-t) ([2]; NMRI (single stereoisomers SR/RS), BALB/c (racemate), mouse, brain, iv, 2 mg/kg i.v., mice, read-out: AUClast Brain): 9050 ng·h/mL
CCCN(CCC)C(=O)c1ccc(-c2cc([C@@H](O)[C@@H]3CCCCN3)c3ccccc3n2)cc1 (racemic) [Compound S25, mixture of 4-(4-((R)-hydroxy((S)-piperidin-2-yl)methyl)quinolin-2-yl)-N,N-dipropylbenzamide and 4-(4-((S)-hydroxy((R)-piperidin-2-yl)methyl)quinolin-2-yl)-N,N-dipropylbenzamide]	35.4	–
O[C@H](c1cc(-c2ccc(C(F)(F)F)cc2)nc2ccccc12)[C@@H]1CCCCN1 (racemic) [Compound S26, mixture of (R)-((S)-piperidin-2-yl)(2-(4-(trifluoromethyl)phenyl)quinolin-4-yl)methanol and (S)-((R)-piperidin-2-yl)(2-(4-(trifluoromethyl)phenyl)quinolin-4-yl)methanol]	13.5	–
OC(c1cc(-c2ccc(Cl)cc2)nc2c(Cl)cccc12)C1CCCCN1 (centres unmarked) [Compound S4, (8-chloro-2-(4-chlorophenyl)quinolin-4-yl)(piperidin-2-yl)methanol]	1.03	–
OC(c1cc(-c2ccc(Cl)c(Cl)c2)nc2ccccc12)C1CCCCN1 (centres unmarked) [Compound S7, (2-(3,4-dichlorophenyl)quinolin-4-yl)(piperidin-2-yl)methanol]	1.59	–
OC(c1cc(-c2ccccc2)nc2c1ccc1ccccc12)C1CCCCN1 (centres unmarked) [Compound S1, (2-phenylbenzo[h]quinolin-4-yl)(piperidin-2-yl)methanol]	0.39	–
O[C@H](c1cc(-c2ccc(C(F)(F)F)cc2)nc2ccccc12)[C@H]1CCCCN1 (racemic) [Compound S28, mixture of (R)-((R)-piperidin-2-yl)(2-(4-(trifluoromethyl)phenyl)quinolin-4-yl)methanol and (S)-((S)-piperidin-2-yl)(2-(4-(trifluoromethyl)phenyl)quinolin-4-yl)methanol]	14.6	–
OC(c1cc([C@]23CC4CC[C@H](C[C@H]4C2)C3)nc2c(Cl)cc(Cl)cc12)C1CCCCN1 (stereo partly drawn) [Compound S2, (6,8-dichloro-2-((2R,3aS,5R)-octahydro-1H-2,5-methanoinden-2-yl)quinolin-4-yl)(piperidin-2-yl)methanol]	0.41	–
OC(c1cc(-c2ccccc2)nc2cc(Cl)ccc12)C1CCCCN1 (centres unmarked) [Compound S11, (7-chloro-2-phenylquinolin-4-yl)(piperidin-2-yl)methanol]	2.69	–
O[C@@H](c1cc(-c2ccc(Cl)cc2)nc2ccccc12)[C@@H]1CCCCN1 [Compound S22, (S)-(2-(4-chlorophenyl)quinolin-4-yl)((S)-piperidin-2-yl)methanol]	10.5	potency with respect to S10 (viability) [1]: significantly attenuated activity
OC(c1cc(C(F)(F)F)nc2c(Cl)cc(Cl)cc12)C1CCCCN1 (centres unmarked) [Compound S17, (6,8-dichloro-2-(trifluoromethyl)quinolin-4-yl)(piperidin-2-yl)methanol]	9.6	–
CN1CCCCC1C(O)c1cc(-c2ccc(Cl)cc2)nc2ccccc12 (centres unmarked) [Compound S19, (2-(4-chlorophenyl)quinolin-4-yl)(1-methylpiperidin-2-yl)methanol]	19.3	–
OC(c1cc(-c2cccc(Cl)c2)nc2ccccc12)C1CCCCN1 (centres unmarked) [Compound S6, (2-(3-chlorophenyl)quinolin-4-yl)(piperidin-2-yl)methanol]	1.25	–
OC(c1cc(-c2ccc(Cl)cc2)nc2ccccc12)C1CCCN1 (centres unmarked) [Compound S16, (2-(4-chlorophenyl)quinolin-4-yl)(pyrrolidin-2-yl)methanol]	8.72	–
O[C@H](c1cc(-c2ccc(Cl)cc2)nc2ccccc12)[C@H]1CCCCN1 [Compound S23, (R)-(2-(4-chlorophenyl)quinolin-4-yl)((R)-piperidin-2-yl)methanol]	9.95	potency with respect to S10 (viability) [1]: significantly attenuated activity
O[C@H](c1cc(-c2ccc(C(F)(F)F)nc2)nc2ccccc12)[C@H]1CCCCN1 (mixture of isomers) [Compound S29, mixture of (R)-((R)-piperidin-2-yl)(2-(6-(trifluoromethyl)pyridin-3-yl)quinolin-4-yl)methanol and (S)-((S)-piperidin-2-yl)(2-(6-(trifluoromethyl)pyridin-3-yl)quinolin-4-yl)methanol]	–	In vitro efficacy (viability) EC50 ([1]; U3013, 24 hours exposure): No activity
OC(c1cc(C2CCCCC2)nc2ccccc12)C1CCCCN1 (centres unmarked) [Compound S18, (2-cyclohexylquinolin-4-yl)(piperidin-2-yl)methanol]	12.7	–
CN(Cc1ccc(-c2cc(C(O)C3CCCCN3)c3ccccc3n2)cc1)C(=O)OC(C)(C)C (centres unmarked) [Compound S9, tert-butyl 4-(4-(hydroxy(piperidin-2-yl)methyl)quinolin-2-yl)benzyl(methyl)carbamate]	2.25	–
